# Laboratory results published in patent publication US8227425B2, “Antiviral compounds” (Therapicon Srl, priority 2007, dated 2012).
# Like-named read-outs stand apart in the source and are kept apart here.
# How the values were obtained:
# Assay in all cases: microbe, parasite or virus in culture
# [1] = tested on: A/NewCaledonia/20/99-H1N1; format: cell-based, influenza virus type A; settings: for IC50: Influenza A virus, H1N1, MDCK, 72 h, read-out: concentration of the compound necessary to reduce the plaques number to 50% against the control
# B/Shandong/7/97 = format: cell-based; settings: for IC50: Influenza B virus, 72 h, read-out: concentration of the compound necessary to reduce the plaques number to 50% against the control
# A/Panama/2007/99-H3N2 = format: cell-based, influenza virus type A; settings: for IC50: Influenza A virus, H3N2, MDCK, 72 h, read-out: concentration of the compound necessary to reduce the plaques number to 50% against the control
# [2] = MDCK cells, about 50 PFU/ml, 3 days, tested 0.01-100 μM, duplicate
SMILES,IC50 [1],IC50 (B/Shandong/7/97; MDCK),IC50 (A/Panama/2007/99-H3N2),antiviral activity relative to amantadine (fold less) [1],IC50 (B/Shandong/7/97; [2]),antiviral activity relative to memantine (fold more) [1],"antiviral activity against influenza virus type B in the tested concentration range (B/Shandong/7/97; tested 0.01-100 μM, PRA)",antiviral activity relative to memantine (fold more) (A/Panama/2007/99-H3N2)
"NC12CC3CC(CC(C3)C1)C2 [Amantadine, amantadine, reference compound]",0.1 µM,> 100 µM,10 µM,–,–,–,–,–
CC(=O)NC1C(O)CC(O)(C(=O)O)OC1CNC12CC3CC(CC(C3)C1)C2 (stereo not shown) [Compound 1],1 µM,–,10 µM,10 fold,10 µM,–,–,–
CC(=O)NC1C(O)CC(O)(C(=O)O)OC1CNC12CC3CC(C)(CC(C)(C3)C1)C2 (stereo not shown) [Compound 8],10 µM,–,10 µM,–,> 100 µM,~10 fold,Any antiviral activity of Compound 8 has been evidenced,~10 fold
"CC12CC3CC(C)(C1)CC(N)(C3)C2 [Memantine, memantine, reference compound]",100 µM,–,100 µM,–,100 µM,–,–,–
